Results on one compound are retold here after article PMC7280531, “A PROTAC peptide induces durable β-catenin degradation and suppresses Wnt-dependent intestinal cancer” (Cell Discovery, 2020).

Where a SMILES comes first, the peptide text is derived from it. Bridges are numbered along the chain shown (N, C = ends). [ ]: non-standard residue; d: D form. S5 = C=CCCC[C@](C)(N)C(=O)O; Ahx = NCCCCCC(=O)O

For data set [1], the system named is SW480 cells. As to the kind of experiment: Cell permeability of FITC-labeled peptides in SW480 cells (confocal microscopy). The class given is cell-based. As to the method: After elongation of the peptide and metathesis reaction were conducted on the resin according to a general protocol. Then, the Fmoc group was removed and the resin was treated with Fmoc-Ahx-OH (4 eq.), DIC (4 eq.), Oxyma pure (4 eq.) and NMP (6 mL) for 15 min at 60 °C. The Fmoc group was removed and the resin was treated with fluorescein isothiocyanate (FITC, 2 eq.) and DIPEA (2 eq.) in DMF (6 mL) at room temperature overnight. The biotinylated labeling was carried out as routine amino acid. Cleavage was conducted following a general protocol and crude peptide was purified by RP- HPLC to give the final products.
Supplementary Fig. S3. Cell permeability of FITC-labeled peptides in SW480 […]
(a) The uptake of FITC-labeled peptides into SW480 was examined after incubation for 6 h by confocal microscopy. The nuclei were counter-stained with DAPI. Scale bar = 100 μm. (b) FITC-xStAx and FITC-xStAx-VHLL were added to SW480 cells for 6 h, and then washed out with the growth medium. After 24 h and 48 h, the cells were counter-stained with DAPI and examined by confocal microscopy. Scale bar = 100 […]
(1 picture or pasted object on this page, not shown here)

Data set [2] has as its system intestinal tumors. Nature of the data set: Intestinal tumors in APC^min/+ mice.
Description: Because APC^min/+ mice can develop intestinal tumors around 10 weeks-old[26], the 11 weeks-old APC^min/+ mice were intraperitoneally injected with 30 mg/kg vehicle DMSO or peptides at every other day for 14 days. Then the mice were sacrificed for analysis of intestinal tumors.
Tumor number of the whole intestinal tract was analyzed in the lower panel.
In data set [3] the test system is LoVo cells. Nature of the data set: Tumor formation in nude mice from pretreated LoVo cells. The class given is in vivo, BALB/C nude mice. As to the method: Next, to examine the influence of the peptides on tumor formation, 3 × 10^6 LoVo cells were pretreated with each peptide at 50 μM for 24 h, followed by subcutaneous injection into BALB/C nude mice. After 3 weeks when tumors were visible, the mice were sacrificed for comparison of subcutaneous tumors among different groups.
LoVo cells cultured were pretreated with DMSO pr peptides (50 μM) for 24 h. Then the cells were digested with trypsin and centrifuge (3 min at 300–400 g). Cell pellets were washed with cold PBS three times and the cell number was counted. The BALB/C nude mice were subcutaneously injected with 3 × 10^6 cells. Three weeks later, the nude mice were sacrificed and dissected for tumors. Tumor weight was quantified.

Data set [4] deals with β-catenin. As to the kind of experiment: β-catenin immunoblotting in colorectal cancer cells (HCT116, SW480, LoVo). It counts as cell-based. To be noted: for β-catenin protein level, MSAB versus xStAx-VHLL: 50 μM xStAx-VHLL. As to the method: Relative
β-catenin protein level was quantified with ImageJ and normalized to GAPDH. Data […]
(b) LoVo cells were treated with 50 μM xStAx (xS), 50 μM
immunoblotting. (c, d) LoVo (c) and SW480 (d) cells were treated with different

Data set [5] concerns CRC patient-derived organoids. As to the kind of experiment: CRC patient-derived tumor organoid culture. To be noted: 10 μM. It counts as cell-based, human. As to the method:
Fig. 6 xStAx-VHLL restrains the survival of CRC patient-derived organoids. a Twelve CRC patient-derived organoids, numbered from C-01 to C-12, were treated with DMSO and 10 μM xStAx-VHLL for 4 days. The organoids survival rate of each group was calculated at day 4. b The C-08 organoids were treated with DMSO and 10 μM xStAx-VHLL for 4 days. The trypan blue staining at day 4 indicated the dead organoids. Scale bar = 100 μm. c The percentage of survived C-08 organoids was calculated each day after xStAx-VHLL treatment. d The C-08 organoids were treated with DMSO or 10 μM xStAx-VHLL for 48 h and then harvested for immunoblotting. Relative β-catenin protein levels were quantified. e The C-08 organoids were treated with DMSO and 10 μM xStAx-VHLL for 4 days. Scale bar = 100 μm. f The percentage of survived organoids in C-11 group was calculated each day after xStAx-VHLL treatment. g The C-11 organoids were treated with DMSO or 10 μM xStAx-VHLL for 48 h and then harvested for immunoblotting. Relative β-catenin protein levels were quantified. The relative band intensity was quantified with ImageJ and normalized to GAPDH levels.
CRC patient tumor tissues were washed with cold HBSS. After removing the muscle tissue, the epithelial tumor tissues were cut into small pieces and vigorously suspended. Then the tissue suspension was centrifuged (3 min at 300–400 g) and tumor fraction was enriched at the bottom. Next, the tumor fraction was embedded in Matrigel (BD Biosciences) and seeded on 24-well plates with the culture medium, which includes Advanced DMEM/F12 supplemented with Penicillin/Streptomycin, GlutaMAX-I, N2, B27, N-acetylcysteine (Sigma-Aldrich), CHIR-99021 (5 μM, Selleck), A-83–01 (0.5 μM, Cayman), SB202190 (10 μM, Selleck), gastrin (1 nM, Tocris), Y27632 (10 μM, Enzo), PEG2 (2.5 μM, Selleck), nicotinamide (10 mM, Sigma-Aldrich), EGF (50 ng/mL, Invitrogen), Noggin (100 ng/mL, R&D) and R-spondin1 (500 ng/mL).

For data set [6], the system named is LoVo cells. Nature of the data set: Cell proliferation assay (CCK-8), LoVo cells. The class given is cell-based. To be noted: 6 days. As to the method:
Equal number of cells (8000–10,000 cells) were seeded in the 24-well plates and then subjected to different treatments. The cell numbers were counted every 24 h with the CCK-8 cell counting kit (Dojindo Molecular Technologies) according to manufacturer’s instructions.

As for `CC[C@H](C)[C@@H]1NC(=O)[C@@](C)(NC(=O)[C@H](CCCNC(=N)N)NC(=O)[C@@H]2CCCN2C(=O)[C@H](Cc2c[nH]c3ccccc23)NC(=O)[C@H](CCCNC(=N)N)NC(=O)[C@H](CCCNC(=N)N)NC(C)=O)CCCC=CCCC[C@@](C)(C(=O)N[C@@H](Cc2c[nH]cn2)C(=O)N[C@H](C(=O)N[C@@H](CCCNC(=N)N)C(=O)N[C@@H](CCCNC(=N)N)C(=O)N[C@H](C(=O)N[C@@H](Cc2c[nH]c3ccccc23)C(=O)N[C@@H](CCCNC(=N)N)C(=O)NCCCCCC(=O)N[C@@H](C)C(=O)N[C@@H](CC(C)C)C(=O)N[C@@H](C)C(=O)N2CCC[C@H]2C(=O)N[C@@H](Cc2ccc(O)cc2)C(=O)N[C@H](C(=O)N2CCC[C@H]2C(N)=O)[C@@H](C)CC)C(C)C)C(C)C)NC(=O)[C@H](CC(=O)O)NC(=O)[C@H](CC(C)C)NC1=O` [xStAx-VHLL] (Ac-RRWPR[S5]ILD[S5]HVRRVWR[Ahx]ALAPYIP-NH2; staple 6-10; N-terminus and C-terminus assumed), the “retention in the cell after wash-out” value in data set [1] (6 h, washed out with growth medium, examined after 24 h and 48 h) is reported as “retained in the cell much longer”. In data set [1] (6 h incubation), the “membrane permeability / uptake into cells” value is given as “could efficiently enter into a cell”. Further, the “active β-catenin protein level in small intestine” value in data set [2] (30 mg/kg i.p. 7 times, immunoblot, compared with the vehicle group) is “also decreased”. The intestinal tumor number entry in data set [2] (11 weeks-old mice, 30 mg/kg i.p. every other day for 14 days (7 times), vs day 0 or DMSO) is listed as “dramatically reduced tumor number”. The “subcutaneous tumor size and weight” value in data set [3] (3 × 10^6 LoVo cells pretreated with 50 μM peptide for 24 h, s.c. injection, 3 weeks, n = 10 mice per group) was “significantly smaller in size and weight”. The “β-catenin protein level in tumor extracts” value in data set [3] (tumors from pretreated LoVo cells, immunoblot, compared with other groups) is “apparently decreased”. The “Wnt target genes Axin2, Cyclin D1 and Myc in tumors” value in data set [3] (tumors from pretreated LoVo cells, qPCR) is recorded as “also decreased”. The “dose dependence of β-catenin degradation” value in data set [4] (CRC cells (HCT116, LoVo, SW480), indicated concentrations, 24 h) is “dose-dependent manner”. In addition, the “β-catenin level after wash-out of the peptide” value in data set [4] (HCT116, 50 μM peptide 24 h, then fresh medium 24 or 48 h) is on record as “remained low after 24 h”. Moreover, in data set [4] (HCT116, SW480 or LoVo, 50 μM peptides, 24 h, immunoblot), the “β-catenin degradation in colorectal cancer cells” value is “promotes the degradation of β-catenin”. Besides, the “β-catenin protein level, MSAB versus xStAx-VHLL” value is “decreased β-catenin protein to a comparable level” in data set [4] (HCT116 and SW480, 10 μM MSAB, 24 h); “able to reduce the β-catenin protein level” in data set [4] (LoVo, 10 μM MSAB, 24 h). In data set [5] (2 days (48 h), immunoblot), the “β-catenin protein level in C-08 organoids” value is “reduced the β-catenin protein level”. Also, the “survival of C-11 organoids” value in data set [5] (4 days) is “insensitive to xStAx-VHLL”. Also, the “patient-derived organoids whose survival was potently inhibited” value in data set [5] (4 days, 12 CRC samples C-01 to C-12) is listed as 11/12. The “survival of C-08 and C-05 organoids” value in data set [5] (4 days, compared with DMSO control) is “strong inhibition function”. For the same compound, in data set [6] (50 μM peptides, cell number counted each day), the “proliferation of LoVo cells” value is “significantly attenuated the proliferation”. Also, the “proliferation of LoVo cells, MSAB versus xStAx-VHLL” value in data set [6] (1 × 10^4 cells, 10 μM MSAB or 50 μM xStAx-VHLL) was “hampered by xStAx-VHLL”.
